Results: ChEMBL document CHEMBL4823289, “Conformational-Analysis-Guided Discovery of 2,3-Disubstituted Pyridine IDO1 Inhibitors” (ACS Med Chem Lett, 2021)

Legend:
[1] = target: T1, Indoleamine 2,3-dioxygenase 1 (Homo sapiens, UniProt P14902); experiment: Inhibition of IDO1 in IFNgamma-stimulated human HeLa cells preincubated for 2 hrs followed by recombinant human IFNgamma stimulation and measured after 18 hrs by fluorescence based microplate reader assay
[2] = target: Indoleamine 2,3-dioxygenase 1 (Mus musculus, UniProt P28776); experiment: Inhibition of IDO1 in IFNgamma-stimulated mouse M109 cells preincubated for 2 hrs followed by recombinant murine IFNgamma stimulation and measured after 18 hrs by fluorescence based microplate reader assay; type: cell-based
[3] = Metabolic stability in human liver microsomes assessed as parent compound remaining at 0.5 uM after 10 mins incubation by LC-MS/MS analysis relative to control; type: ADME, Microsome; details: read-out: Activity
[4] = Metabolic stability in mouse liver microsomes assessed as parent compound remaining at 0.5 uM after 10 mins incubation by LC-MS/MS analysis relative to control; type: ADME, Microsome; details: read-out: Activity
[5] = Metabolic stability in rat liver microsomes assessed as parent compound remaining at 0.5 uM after 10 mins incubation by LC-MS/MS analysis relative to control; type: ADME, Microsome; details: read-out: Activity
[6] = target: T1, Indoleamine 2,3-dioxygenase 1; experiment: Inhibition of IDO1 in IFNgamma/LPS-stimulated human whole blood preincubated for 4 hrs followed by IFNgamma/LPS stimulation and incubated for 18 hrs by Rapid-fire mass spectrometry analysis; type: tissue-based
[7] = Protein binding in human assessed as free fraction relative to control; type: ADME
[8] = Protein binding in mouse assessed as free fraction relative to control; type: ADME
[9] = AUC (0 to 24 hrs) in human SK-OV-3 cells xenografted in nu/nu mouse xenograft model measured in tumor at 60 mg/kg, po QD; type: ADME, organism-based; set-up: time < 24 hr, route oral, dose 60 mg/kg
[10] = target: Indoleamine 2,3-dioxygenase 1 (Mus musculus) (UniProt P28776); experiment: In vivo inhibition of IDO1 in mouse xenografted with human SK-OV-3 cells assessed as reduction in tumor kynurenine AUEC at 60 mg/kg, po QD for 5 days measured up to 24 hrs after dosing relative to control; type: functional, organism-based; set-up: scale not given: the % may be the effect or the level left; details: time 5.0 day
Sequence of Indoleamine 2,3-dioxygenase 1 (Mus musculus) (P28776 whole entry, looked up): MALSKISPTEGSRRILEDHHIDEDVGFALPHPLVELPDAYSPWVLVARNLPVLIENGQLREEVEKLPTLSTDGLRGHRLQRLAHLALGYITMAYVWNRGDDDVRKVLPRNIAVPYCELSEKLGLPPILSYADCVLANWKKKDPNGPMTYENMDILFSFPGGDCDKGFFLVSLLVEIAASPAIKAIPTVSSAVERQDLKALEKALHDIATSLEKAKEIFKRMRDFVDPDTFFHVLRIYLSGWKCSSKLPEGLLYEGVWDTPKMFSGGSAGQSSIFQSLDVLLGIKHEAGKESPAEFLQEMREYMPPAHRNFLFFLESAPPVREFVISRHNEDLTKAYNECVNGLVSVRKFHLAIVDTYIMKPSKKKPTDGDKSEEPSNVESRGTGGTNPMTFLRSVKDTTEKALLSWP

T1 sequence (P14902 whole entry): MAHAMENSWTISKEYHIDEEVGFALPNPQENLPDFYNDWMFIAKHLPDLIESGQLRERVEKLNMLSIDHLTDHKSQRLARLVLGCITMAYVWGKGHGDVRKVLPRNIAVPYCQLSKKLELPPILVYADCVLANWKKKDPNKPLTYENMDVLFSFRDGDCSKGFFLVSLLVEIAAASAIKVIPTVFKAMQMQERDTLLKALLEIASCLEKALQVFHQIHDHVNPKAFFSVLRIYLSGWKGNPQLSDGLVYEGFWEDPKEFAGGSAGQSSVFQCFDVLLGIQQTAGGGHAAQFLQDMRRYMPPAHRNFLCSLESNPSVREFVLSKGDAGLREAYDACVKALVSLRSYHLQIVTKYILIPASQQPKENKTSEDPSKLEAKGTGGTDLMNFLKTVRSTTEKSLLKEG
Sequence of Indoleamine 2,3-dioxygenase 1 (Mus musculus, UniProt P28776) (P28776 whole entry): as the sequence (P28776 whole entry, looked up) above

| IC50 [1] [nM] | IC50 [2] [nM] | remaining at 10 min, 0.5 µM [3] [%] | remaining at 10 min, 0.5 µM [4] [%] | remaining at 10 min, 0.5 µM [5] [%] | IC50 [6] [nM] | Activity [7] [%] | Activity [8] [%] | AUC at 24 h [9] [µM·h] | Activity [10] [%] | SMILES |
| --- | --- | --- | --- | --- | --- | --- | --- | --- | --- | --- |
| 5 | 3 | 0 | 1 | 1 | 47 |  |  |  |  | Cc1c(F)nccc1[C@H]1CC[C@@H]([C@@H](C)NC(=O)c2ccc(Cl)cc2)CC1 |
| 3 | 22 | 68 | 15 | 21 | 11 |  |  |  |  | CC[C@@H](NC(=O)c1ccc(Cl)cc1)[C@H]1CC[C@@H](c2ccnc(OC)c2F)CC1 |
| 2 | 6 | 85 | 30 | 57 | 4.4 |  |  |  |  | CC[C@@H](NC(=O)c1ccc(Cl)cc1)[C@H]1CC[C@@H](c2ccnc(OC)c2C(F)F)CC1 |
|  |  |  |  |  |  | < 0.3 | < 0.2 |  |  | C[C@@H](NC(=O)c1ccc(Cl)cc1)[C@H]1CC[C@@H](c2ccnc3ccc(F)cc32)CC1 |
| 43 | 196 | 0 | 0 |  |  |  |  |  |  | CC[C@@H](NC(=O)c1ccc(Cl)cc1)[C@H]1CC[C@@H](c2cccc3c2OC(F)(F)O3)CC1 |
| 2 | 11 | 68 | 15 | 35 | 4.1 |  |  |  |  | COC[C@@H](NC(=O)c1ccc(Cl)cc1)[C@H]1CC[C@@H](c2ccnc(OC)c2C(F)F)CC1 |
| 40 | 40 | 89 | 56 |  |  |  |  |  |  | CC[C@@H](NC(=O)c1ccc(Cl)cc1)[C@H]1CC[C@H](c2cccc(C(F)(F)F)n2)CC1 |
|  |  |  |  |  |  |  |  | 18 | 65 | C[C@@H](C(=O)Nc1ccc(Cl)cc1)[C@H]1CC[C@@H](c2ccnc3ccc(F)cc32)CC1 |
| 2 | 7 | 71 | 15 | 34 | 2.8 |  |  |  |  | CC[C@@H](NC(=O)c1ccc(Cl)cc1)[C@H]1CC[C@@H](c2ccnc(OC)c2C)CC1 |
| 12 | 16 | 1 | 1 |  |  |  |  |  |  | Cc1cc([C@H]2CC[C@@H]([C@@H](C)NC(=O)c3ccc(Cl)cc3)CC2)ccn1 |
| 26 | 97 | 88 | 65 |  |  |  |  |  |  | CC[C@@H](NC(=O)c1ccc(Cl)cc1)[C@H]1CC[C@H](c2cccc(=O)n2C)CC1 |
| 4 | 6 | 30 | 3 |  |  |  |  |  |  | Cc1nccc([C@H]2CC[C@@H]([C@@H](C)NC(=O)c3ccc(Cl)cc3)CC2)c1C |
| 19 | 31 | 80 | 28 |  |  |  |  |  |  | CC[C@@H](NC(=O)c1ccc(Cl)cc1)[C@H]1CC[C@H](c2cncc(OC)c2)CC1 |
| 80 | 193 | 20 | 42 |  |  |  |  |  |  | CC[C@@H](NC(=O)c1ccc(Cl)cc1)[C@H]1CC[C@H](c2nccc(OC)n2)CC1 |
| 48 | 121 | 56 | 8 |  |  |  |  |  |  | CC[C@@H](NC(=O)c1ccc(Cl)cc1)[C@H]1CC[C@H](c2cccc(C)n2)CC1 |
| 14 | 75 | 94 | 90 |  |  |  |  |  |  | CC[C@@H](NC(=O)c1ccc(Cl)cc1)[C@H]1CC[C@H](c2ccc(OC(F)F)cc2)CC1 |
| 475 | > 1000 | 3 | 1 |  |  |  |  |  |  | CC[C@@H](NC(=O)c1ccc(Cl)cc1)[C@H]1CC[C@@H](c2cccnc2OC)CC1 |
| 7 | 3 | 16 | 15 |  |  |  |  |  |  | Cc1cnccc1[C@H]1CC[C@@H]([C@@H](C)NC(=O)c2ccc(Cl)cc2)CC1 |
